From PubChem BioAssay (NCI)
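All cell lines were grown in 96-well plates and treated with compound for 48 hours. GI50 marks 50% less growth. TGI is the concentration that stops growth completely.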

How the values were obtained:
Test in all cases: DTP human tumour cell line panel, 48 h
NCI-H460 lung = system: NCI-H460 lung
ACHN renal = system: ACHN renal
UACC-62 melanoma = system: UACC-62 melanoma
TK-10 renal = system: TK-10 renal
SF-539 CNS = system: SF-539 CNS
DU-145 prostate = system: DU-145 prostate
SNB-19 CNS = system: SNB-19 CNS
786-0 renal = system: 786-0 renal
OVCAR-3 ovarian = system: OVCAR-3 ovarian
SN12C renal = system: SN12C renal

| Structure (SMILES) | GI50 (NCI-H460 lung) | TGI (NCI-H460 lung) | GI50 (ACHN renal) | TGI (ACHN renal) | GI50 (UACC-62 melanoma) | TGI (UACC-62 melanoma) | GI50 (TK-10 renal) | TGI (TK-10 renal) | GI50 (SF-539 CNS) | TGI (SF-539 CNS) | GI50 (DU-145 prostate) | TGI (DU-145 prostate) | GI50 (SNB-19 CNS) | TGI (SNB-19 CNS) | GI50 (786-0 renal) | TGI (786-0 renal) | GI50 (OVCAR-3 ovarian) | TGI (OVCAR-3 ovarian) | GI50 (SN12C renal) | TGI (SN12C renal) |
| --- | --- | --- | --- | --- | --- | --- | --- | --- | --- | --- | --- | --- | --- | --- | --- | --- | --- | --- | --- | --- |
| COc1ccc2c(c1)[nH]c(=O)c1c3cc(OC)c(OC)cc3cn21 | < 0.01 µM | 1.04 µM | < 0.01 µM | 16.1 µM | < 0.01 µM | 21 µM | 0.386 µM | 17.3 µM | 0.0175 µM | 0.0618 µM | < 0.01 µM | 0.0594 µM | 0.016 µM | 22.3 µM | 0.0386 µM | 15.3 µM | < 0.01 µM | < 0.01 µM | 0.0124 µM | 15.2 µM |
| C=C(C)[C@@H]1CC[C@]2(C(=O)O)CC[C@]3(C)[C@H](CC[C@@H]4[C@@]5(C)C/C(=C/c6cccc(I)c6)C(=O)C(C)(C)[C@@H]5CC[C@]43C)[C@@H]12 | 1.9 µM | 4.27 µM | 2.62 µM | 11 µM | 1.82 µM | 4.16 µM | 3.25 µM | 20.6 µM | 2.17 µM | 5.52 µM | 2.63 µM | 7.84 µM | 3.28 µM | 17.5 µM | 2.46 µM | 6.72 µM | 1.78 µM | 3.7 µM | 2.93 µM | 11.7 µM |
| O=C(Oc1ccccc1Cl)c1ccccc1Nc1cccc(C(F)(F)F)c1 | 37.3 µM | > 100 µM | 40.3 µM | > 100 µM | 16.9 µM | 42.9 µM | 32.7 µM | 67.9 µM | 22.1 µM | 42.2 µM | 31.8 µM | 89 µM | 73.2 µM | > 100 µM | 27.2 µM | 96.6 µM | 15.4 µM | 32.9 µM | 23.4 µM | > 100 µM |
| O=C(c1nn(-c2ccc(Cl)cc2)cc1O)n1nc(C(F)(F)F)cc1-c1ccccc1 | 0.767 µM | > 59.3 µM | 2.08 µM | > 100 µM | 2.12 µM | > 71.1 µM | 1.41 µM | > 100 µM | 2.7 µM | > 100 µM | 8.47 µM | > 100 µM | 3.98 µM | > 100 µM | 6.39 µM | > 60.8 µM | 2.25 µM | > 100 µM | 3.57 µM | > 100 µM |
| CCCCCCCCCCC[C@@H](C[C@H]1OC(=O)[C@H]1CCCCCC)OC(=O)[C@@H](CC(C)C)NC=O | 3.63 µM | 21.1 µM | 8.63 µM | > 100 µM | 4.95 µM | 25.2 µM | 32.8 µM | > 100 µM | 5.48 µM | 31 µM | 16.7 µM | > 100 µM | 5.02 µM | 25.4 µM | 2.42 µM | 18.7 µM | 3.17 µM | 14.5 µM | 2.42 µM | 12.2 µM |
| COc1ccc(C(=O)/C=C/c2cc(-c3ccc4c(c3)OCO4)n[nH]2)cc1OC | 1.81 µM | 4.05 µM | 3.49 µM | 56.5 µM | 4.1 µM | 14.8 µM | 2.88 µM | 8.97 µM | 1.91 µM | 4.47 µM | 1.87 µM | 4.27 µM | 3.2 µM | 15.2 µM | 3.12 µM | 11.4 µM | 2.02 µM | 4.61 µM | 3.25 µM | 13.6 µM |
